Reference: patent publication US20240294541A1, “COMPOUNDS CONSTITUTING C20-MODIFIED SALINOMYCIN DERIVATIVES, A METHOD FOR OBTAINING THE SAME, A COMPOSITION CONTAINING THE SAME AND A USE OF SAID COMPOUNDS” (FILECLO SPOLKA Z OGRANICZONA ODPOWIEDZIALNOSCIA, priority 2021, published 2024)
Read-outs that look alike come from different tables or passages of the source.

Columns and labels:
Format in all cases: cell-based
Hs294T (human melanoma) = experiment: cells; conditions: for IC50: Hs 294T; for Hs294T SI: selectivity coefficient vs normal BALB/3T3 cells
[1] = system: PLC/PRF/5 (human liver cancer); experiment: cells; conditions: for PLC/PRF/5 SI: selectivity coefficient vs normal BALB/3T3 cells
[2] = system: SNU-16 (human gastric cancer); experiment: cells; conditions: for SNU-16 SI: selectivity coefficient vs normal BALB/3T3 cells
[3] = system: MIA PaCa-2 (human pancreatic cancer); experiment: cells; conditions: for MIA PaCa-2 SI: selectivity coefficient vs normal BALB/3T3 cells
[4] = system: NCI-H358 (human lung cancer); experiment: cells; conditions: Table 4; for IC50: NCI-H358 human lung cancer cells, read-out: IC50 (nM) NCI-H358
cancer cells = experiment: In vitro cytotoxic activity on the panel of cancer cell lines (MTT/SRB), general statements; conditions: for anti-proliferative effect compared to that of the parent compound: Tables 3.1, 3.2, 4 and 5, parent compound salinomycin
[5] = system: NCI-H23 (human lung cancer); experiment: In vitro cytotoxicity, SRB assay, NCI-H23; conditions: for IC50: Homo sapiens; for NCI-H23 SI: selectivity coefficient vs normal BALB/3T3 cells
[6] = system: PFSK-1 (malignant primitive neuroectodermal tumour); experiment: In vitro cytotoxicity, SRB assay, PFSK-1; conditions: for IC50: Homo sapiens; for PFSK-1 SI: selectivity coefficient vs normal BALB/3T3 cells
[7] = system: A2780 (human ovarian cancer); experiment: In vitro cytotoxicity, SRB assay, A2780; conditions: for IC50: Homo sapiens; for A2780 SI: selectivity coefficient vs normal BALB/3T3 cells
[8] = system: A2780Cis (cisplatin-resistant human ovarian cancer); experiment: In vitro cytotoxicity, SRB assay, A2780Cis; conditions: for IC50: Homo sapiens, A2780cis
A375 (human melanoma) = experiment: In vitro cytotoxicity, SRB assay, A375; conditions: for IC50: Homo sapiens; for A375 SI: selectivity coefficient vs normal BALB/3T3 cells
[9] = system: KG-1 (human acute myeloid leukaemia); experiment: In vitro cytotoxicity, MTT assay, KG-1; conditions: for IC50: Homo sapiens, 72 h with compound, MTT, n/a = non-active compound; for KG-1 SI: selectivity coefficient vs normal BALB/3T3 cells
[10] = system: BALB/3T3 (normal mouse fibroblasts); experiment: In vitro cytotoxicity, SRB assay, normal BALB/3T3 fibroblasts
[11] = system: MV-4-11 (human biphenotypic leukaemia); experiment: In vitro cytotoxicity, MTT assay, MV-4-11
[12] = Table 4, Hs294T human melanoma cells, read-out: IC50 (nM) Hs294T
[13] = Table 4, PLC/PRF/5 human liver cancer cells, read-out: IC50 (nM) PLC/PRF/5
[14] = Table 4, SNU-16 human gastric cancer cells, read-out: IC50 (nM) SNU-16
[15] = Table 4, MIA PaCa-2 human pancreatic cancer cells, read-out: IC50 (nM) MIA PaCa-2
[16] = NCI-H23, 72 h with compound, SRB, n/a = non-active compound, read-out: NCI-H23 IC50
[17] = PFSK-1, 72 h with compound, SRB, n/a = non-active compound, read-out: PFSK-1 IC50
[18] = A2780, 72 h with compound, SRB, n/a = non-active compound, read-out: A2780 IC50
[19] = 72 h, read-out: A2780Cis IC50 (nM)
[20] = A-375, 72 h with compound, SRB, n/a = non-active compound, read-out: A375 IC50
[21] = Homo sapiens, 72 h with compound, SRB, n/a = non-active compound, read-out: Hs294T IC50
[22] = Homo sapiens, PLC-PRF-5, 72 h with compound, SRB, n/a = non-active compound, read-out: PLC/PRF/5 IC50
[23] = Homo sapiens, SNU-16, 72 h with compound, MTT, n/a = non-active compound, read-out: SNU-16 IC50
[24] = Homo sapiens, MIA PaCa-2, 72 h with compound, SRB, n/a = non-active compound, read-out: MIA PaCa-2 IC50
[25] = Mus musculus, BALB/3T3, normal cells, 72 h with compound, SRB, n/a = non-active compound, read-out: BALB/3T3 IC50
[26] = Table 4, selectivity coefficient vs normal BALB/3T3 fibroblasts

Compound	anti-proliferative effect compared to that of the parent compound (cancer cells)	IC50 [5, 16]	NCI-H23 SI [5]	PFSK-1 SI [6]	A2780 SI [7]	A2780Cis RI [8]	A2780Cis SI [8]	IC50 [8, 19]	A375 SI (A375 (human melanoma))	IC50 (Hs294T (human melanoma); [21])	Hs294T SI (Hs294T (human melanoma))	IC50 [1, 22]	PLC/PRF/5 SI [1]	IC50 [2, 23]	SNU-16 SI [2]	IC50 [9]	KG-1 SI [9]	IC50 [3, 24]	MIA PaCa-2 SI [3]	IC50 [10, 25]	further results
CCCOC(=O)N[C@@H]1C=C[C@]2(O[C@H]([C@@H](CC)C(=O)[C@@H](C)[C@@H](O)[C@H](C)[C@@H]3O[C@@H]([C@@H](CC)C(=O)O)CC[C@@H]3C)[C@@H](C)C[C@H]2C)O[C@@]12CC[C@@](C)([C@H]1CC[C@](O)(CC)[C@H](C)O1)O2 [FLC-00424-1•Na]	several times more potent compared to that of the parent compound																				IC50 (Hs294T (human melanoma); [12]): 685 nM; IC50 [1, 13]: 5.01 nM; IC50 [2, 14]: 220 nM; IC50 [3, 15]: 38.4 nM; IC50 [4]: 48.7 nM
CC[C@@H](C(=O)[C@@H](C)[C@@H](O)[C@H](C)[C@@H]1O[C@@H]([C@@H](CC)C(=O)O)CC[C@@H]1C)[C@H]1O[C@]2(C=C[C@@H](NC(=S)NCCCSC)[C@]3(CC[C@@](C)([C@H]4CC[C@](O)(CC)[C@H](C)O4)O3)O2)[C@H](C)C[C@@H]1C [FLC-00345-1]	several times more potent compared to that of the parent compound	46.5 nM	1.5	5.6	81.2	0.8	96.6	0.71 nM	0.2	396 nM	0.2	28 nM	2.4	26 nM	2.6	39.2 nM	1.7	111 nM	0.6	68.4 nM	IC50 [6, 17]: 12.3 nM; IC50 [7, 18]: 0.84 nM; IC50 (A375 (human melanoma); [20]): 400 nM
CC[C@@H](C(=O)[C@@H](C)[C@@H](O)[C@H](C)[C@@H]1O[C@@H]([C@@H](CC)C(=O)O)CC[C@@H]1C)[C@H]1O[C@]2(C=C[C@@H](NC(=S)NCc3ccccc3)[C@]3(CC[C@@](C)([C@H]4CC[C@](O)(CC)[C@H](C)O4)O3)O2)[C@H](C)C[C@@H]1C [FLC-00346-1]	several times more potent compared to that of the parent compound		1.1	2.7	96.4	0.2	487.1	0.14 nM	0.2	388 nM	0.2	5.8 nM	11.9	4.52 nM	15.2	20.9 nM	3.3	43.3 nM	1.6	68.8 nM	IC50 ([5]; NCI-H23, 72 h, read-out: NCI-H23 IC50 (nM)): 60.3 nM; IC50 ([6]; PFSK-1, 72 h, read-out: PFSK-1 IC50 (nM)): 25.1 nM; IC50 ([7]; A2780, 72 h, read-out: A2780 IC50 (nM)): 0.71 nM; IC50 (A375 (human melanoma); A-375, 72 h, read-out: A375 IC50 (nM)): 393 nM
CC[C@@H](C(=O)[C@@H](C)[C@@H](O)[C@H](C)[C@@H]1O[C@@H]([C@@H](CC)C(=O)O)CC[C@@H]1C)[C@H]1O[C@]2(C=C[C@@H](NC(=O)OCC(F)F)[C@]3(CC[C@@](C)([C@H]4CC[C@](O)(CC)[C@H](C)O4)O3)O2)[C@H](C)C[C@@H]1C [FLC-00446-1•Na]	several times more potent compared to that of the parent compound																				SI A2780Cis [8]: 294.5; IC50 ([8]; read-out: IC50 (nM) A2780Cis): 0.71 nM; IC50 (Hs294T (human melanoma); [12]): 189 nM; SI Hs294T (Hs294T (human melanoma); [26]): 1.1; IC50 [1, 13]: 37.9 nM; SI PLC/PRF/5 [1, 26]: 5.5; IC50 [2, 14]: 262 nM; SI SNU-16 [2, 26]: 0.8; IC50 [3, 15]: 26.8 nM; SI MIA PaCa-2 [3, 26]: 7.8; IC50 ([10]; Table 4, BALB/3T3 normal mouse fibroblasts, read-out: IC50 (nM) BALB3T3 normal cells): 209 nM; SI MV4-11 [11]: 298.7; IC50 ([11]; Homo sapiens, MV4-11, read-out: IC50 (nM) MV4-11): 0.7 nM; IC50 [4]: 50.8 nM; SI NCI-H358 ([4]; selectivity coefficient vs normal BALB/3T3 fibroblasts): 4.12
CC[C@@H](C(=O)[C@@H](C)[C@@H](O)[C@H](C)[C@@H]1O[C@@H]([C@@H](CC)C(=O)O)CC[C@@H]1C)[C@H]1O[C@]2(C=C[C@@H](NC(=O)Nc3ccccc3)[C@]3(CC[C@@](C)([C@H]4CC[C@](O)(CC)[C@H](C)O4)O3)O2)[C@H](C)C[C@@H]1C [FLC-00374-1]	several times more potent compared to that of the parent compound	2.92 nM	24.1	18.4	156.6	0.2	671.0	0.11 nM	2.1	73.1 nM	1.0	8.83 nM	8.0	4.03 nM	17.5	12.5 nM	5.6	28.7 nM	2.5	70.5 nM	IC50 [6, 17]: 3.83 nM; IC50 [7, 18]: 0.45 nM; SI A2780Cis [8]: 671.0; IC50 ([8]; read-out: IC50 (nM) A2780Cis): 0.11 nM; IC50 (A375 (human melanoma); [20]): 34.2 nM; IC50 ([10]; Table 5, BALB/3T3 normal mouse fibroblasts, read-out: IC50 (nM) BALB3T3 normal cells): 70.5 nM; biological properties (IC50, SI) compared to the corresponding epi compounds (cancer cells; table 5 comparative examples, retained vs inverted C20 configuration): improved biological properties compared to their counterparts with a configuration conversion
CC[C@@H](C(=O)[C@@H](C)[C@@H](O)[C@H](C)[C@@H]1O[C@@H]([C@@H](CC)C(=O)O)CC[C@@H]1C)[C@H]1O[C@]2(C=C[C@@H](NC(=O)NC3CCC3)[C@]3(CC[C@@](C)([C@H]4CC[C@](O)(CC)[C@H](C)O4)O3)O2)[C@H](C)C[C@@H]1C [FLC-00341-1 Na]	several times more potent compared to that of the parent compound	318 nM	0.3	1.9	59.2	0.8	73.9	1.3 nM	0.3	1640 nM	0.1	54.5 nM	1.8	27.1 nM	3.5	45.9 nM	2.1	55.4 nM	1.7	96.2 nM	IC50 [6, 17]: 51.6 nM; IC50 [7, 18]: 1.62 nM; IC50 (A375 (human melanoma); [20]): 293 nM
CC[C@@H](C(=O)[C@@H](C)[C@@H](O)[C@H](C)[C@@H]1O[C@@H]([C@@H](CC)C(=O)O)CC[C@@H]1C)[C@H]1O[C@]2(C=C[C@@H](NC(=S)Nc3ccc(C(F)(F)F)cc3)[C@]3(CC[C@@](C)([C@H]4CC[C@](O)(CC)[C@H](C)O4)O3)O2)[C@H](C)C[C@@H]1C [FLC-00347-1]	several times more potent compared to that of the parent compound	5.51 nM	13.3	16.1	79.0	0.3	264.7	0.28 nM	0.8	103 nM	0.7	5.87 nM	12.5	13.5 nM	5.4	14.1 nM	5.2	44.3 nM	1.7	73.2 nM	IC50 [6, 17]: 4.54 nM; IC50 [7, 18]: 0.93 nM; IC50 (A375 (human melanoma); [20]): 91.2 nM
